Reference: patent US9757424B2, “Compositions and methods of treating gliomas” (BioMed Valley Discoveries, Inc., priority 2011, dated 2017)
Several values for one entry are separate records, joined by “and”; a condition that tells them apart may be missing. Equal entries are not always repeated. Where two headings read alike, the source gives them in different places.

Key:
[1] = test system: U87MG human glioblastomas; assay: U87MG human glioblastoma xenograft in nude mice, tumor growth inhibition Day 22 (Example 1)
Experimental: Each test mouse received a U87MG tumor fragment of the size 1 mm^3. […] Body weight and tumor size were monitored.
It was administered at either 5 mg/kg orally (p.o.) per day or 100 mg/kg (p.o.) per day, once daily from day 1 to day 5 of the treatment (qd×5). Candesartan in 0.5% carboxymethyl cellulose was dissolved in deionized water and administered intraperitoneally (i.p.) at the dose of 10 mg/kg once daily from day 1 to day 21 (qd×21).

[2] = test system: U87MG human glioblastoma xenografts
Experimental: An untreated group served as the control group for efficacy analysis. Dosing was initiated on Day 1, except where indicated otherwise, and tumors were measured twice each week until the study was ended on Day 46. Animals were monitored individually and each mouse was euthanized for endpoint when its tumor attained a volume of 2000 mm^3 (about 2 grams) or on the final day (Day 46), whichever came first.
Treatment response was determined from an analysis of percent tumor growth delay (% TGD), defined as the percent increase in the median time to endpoint (TTE) in treated versus control mice; by logrank significance of differences in survival among treatment groups; and by regression responses. Plots of group mean tumor growth were also considered. Treatment tolerability was assessed by body weight measurements and frequent observation for clinical symptoms of treatment-related side effects.
Xenografts were initiated with U87MG human glioblastomas maintained at Piedmont by serial subcutaneous transplantation in athymic nude mice. Each test mouse received a U87MG tumor fragment (1 mm^3) implanted subcutaneously in the right flank, and the growth of tumors was monitored as the average size approached the target range of 80 to 120 mm^3. […] Tumor volume was calculated using the formula: Tumor Volume (mm^3)=w^2×l where w=width and l=length in mm of a U87MG tumor. Tumor weight may be estimated with the assumption that 1 mg is equivalent to 1 mm^3 of tumor volume.
On Day 1 of the study, mice were sorted into six groups each consisting of ten mice, and dosing was initiated according to the treatment plan summarized in Table 1. Group 1 mice were not treated and served as controls for calculation of % TGD. […] All doses were scaled to the body weights of the individual animals.
Tumors were measured twice each week using calipers. Animals were monitored individually, and each mouse was euthanized when its tumor reached the endpoint size of 2000 mm^3 or at the conclusion of the study (Day 46), whichever came first.
Animals were monitored for regression responses. Treatment may cause partial regression (PR) or complete regression (CR) of the tumor in an animal. In a PR response, the tumor volume is 50% or less of its Day 1 volume for three consecutive measurements during the course of the study, and equal to or greater than 13.5 mm^3 for one or more of these three measurements. In a CR response, the tumor volume is less than 13.5 mm^3 for three consecutive measurements during the course of the study. An animal with a CR response at the termination of a study is additionally classified as a tumor-free survivor (TFS).
Animals were weighed daily on Days 1-5, and then twice weekly until the study was completed. […] Acceptable toxicity was defined as a group mean body-weight loss of less than 20% during the study and not more than one treatment-related (TR) death among ten treated animals. Any dosing regimen that results in greater toxicity is considered above the maximum tolerated dose (MTD). […] A death is classified as NTR if there is no evidence that death was related to treatment side effects. NTR deaths may be further characterized based on cause of death. A death may be classified as NTRa if it resulted from an accident or human error. […] A death may be classified as NTRu if the cause of death is unknown and there is no available evidence of death related to treatment side effects, metastasis, accident or human error, although death due to treatment side effects cannot be excluded.

U87MG tumor fragments = assay: animal or person; conditions: for Regression CR (complete regression) / Regression PR (partial regression): number of animals
Experimental: HRLN female nu/nu mice were seeded with 1 mm^3 U87MG tumor fragments subcutaneously in the flank. Final caliper and body weight measurements were taken on the last day of the study.
All animals were assessed periodically for body weight, as well as tumor burden, using standard protocols with mechanical calipers. […] Dosing was stopped for any group with two measurements of mean body weight loss of greater than 20%. The group was not euthanized, and recovery was allowed. Within a group with greater than 20% weight loss, individuals reaching the individual body weight loss endpoint were euthanized. If the group body weight loss was recovered, dosing may resume. […] Dosing was then resumed with the candidate agent at half the original dose. Animals were monitored as a group. The endpoint of the experiment was a mean tumor weight in control group (or group 1) of 2000 mm^3 or 60 days, whichever comes first. When the endpoint was reached, all the animals were euthanized.

[3] = test system: U87MG human glioblastoma xenografts; assay: U87MG human glioblastoma xenograft, tumor growth delay, 49-day study (Example 2);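 note: female athymic nude mice with subcutaneous tumors, groups of ten, tumors measured twice weekly, endpoint at 2000 mm^3 tumor volume or Day 49, treated compared with control mice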
Experimental: The experiment consisted of groups (n=10) of female athymic nude mice bearing subcutaneous U87MG xenografts (75-144 mm^3) on Day 1. Candesartan was evaluated as monotherapies at dosages of 1, 5, 10 and 50 mg/kg administered intraperitoneally (i.p.) on a once daily for twenty-one days (qd×21) schedule. […] Dosing was initiated on Day 1, and tumors were measured twice each week until the study was ended on Day 49. Animals were monitored individually and each mouse was euthanized for endpoint when its tumor attained a volume of 2000 mm^3 (about 2 grams) or on the final day (Day 49), whichever came first. Tumor samples were collected at endpoint, and histopathology analyses were performed.
The time to endpoint (TTE) was calculated for each mouse. Treatment outcome was determined from percent tumor growth delay (% TGD), defined as the percent increase in median TTE of treated versus control mice, with differences in the TTE values between groups deemed statistically significant at P 0.05 using logrank survival analysis. Animals were also monitored for partial regression (PR) and complete regression (CR) responses. Treatment tolerability was assessed by body weight measurements and frequent observation for signs of treatment-related (TR) toxicity.
Treatment response was determined from an analysis of percent tumor growth delay (% TGD), defined as the percent increase in the median time to endpoint (TTE) in treated versus control mice; by logrank significance of differences in survival among treatment groups; and by regression responses. Plots of group mean tumor growth were also considered. Treatment tolerability was assessed by body weight measurements and frequent observation for clinical symptoms of treatment-related (TR) side effects.
Xenografts were initiated with U87MG human glioblastomas (Piedmont Research Center, Morrisville, N.C.) by serial subcutaneous transplantation in athymic nude mice. Each test mouse received a U87MG tumor fragment (1 mm^3) implanted subcutaneously in the right flank, and the growth of tumors was monitored as the average size approached the target range of 80 to 120 mm^3. […] Tumor volume was calculated using the formula: Tumor Volume (mm^3)=w^2×l/2 where w=width and l=length in mm of a U87MG tumor. Tumor weight may be estimated with the assumption that 1 mg is equivalent to 1 mm^3 of tumor volume. Therapeutic Agents
Doses of valsartan and candesartan were each formulated weekly, and were stored at 4° C. Valsartan dosing solutions were formulated at concentrations of 15 and 3 mg/mL to yield the desired 150 and 30 mg/kg dosages, respectively, in a dosing volume of 0.2 mL per 20 grams body weight (10 mL/kg). The required amount of valsartan powder for the 15 mg/mL solution was suspended in sterile saline, then dissolved with 0.1 N NaOH and pH adjusted to 7.4 with 0.1 N HCl. The 3 mg/mL valsartan dosing solution was prepared by diluting an aliquot of the 15 mg/mL valsartan solution with sterile saline. Candesartan doses were formulated in 0.5% carboxymethyl cellulose (CMC) in deionized water at concentrations of 5, 1, 0.5 and 0.1 mg/mL to yield the desired 50, 10, 5 and 1 mg/kg dosages, respectively, in a dosing volume of 10 mL/kg.
Each test agent was administered intraperitoneally (i.p.) once daily for twenty-one days (qd×21), unless otherwise indicated.
Group 1 was not treated and served as the control group for calculation of % TGD. […] Groups 4-7 received candesartan at 50, 10, 5 or 1 mg/kg, respectively. […] All doses were scaled to the body weights of the individual animals.
Tumors were measured twice each week using calipers.

[4] = test system: U87MG glioma human tumor cell line
Experimental: Compounds are assessed for combination efficacy in a tumor fragment xenograft model generated by serial passage of a commonly available U87MG glioma human tumor cell line. Experimental cohorts are derived by seeding 8-12 week old, female HRLN nu/nu mice with 1 mm^3 sub-fragments of tumors maintained through serial passage in living xenografts. […] Experimental compounds are dosed once daily, in a dose volume less than or equal to 10 mL/kg, in varying vehicle resuspensions and varied routes (see table 7 below). All animals are assessed periodically for body weight, as well as tumor burden using standard protocols with mechanical calipers.
Experimental compounds are scored for efficacy using various data analyses, including manual growth curve inspection, comparison of mean time-to-tumor burden (analogous to C/T analysis), and time-to-event survival analysis by tumor burden.

[5] = temozolomide 100 mg/kg p.o. qdx5
[6] = Group 2: temozolomide 5 mg/kg po qd x 5
[7] = Group 6: temozolomide 100 mg/kg po qd x 5
[8] = Group 1: temozolomide 5 po qd x 5 alone
[9] = Group 1: temozolomide 5 po qd x 5 alone, n=10
[10] = Group 19: temozolomide 100 po qd x 5 alone
[11] = Group 19: temozolomide 100 po qd x 5 alone, n=8
[12] = Group 2: temozolomide 100 mg/kg po qd x 5
[13] = Group 3: temozolomide 5 mg/kg po qd x 5
[14] = Day 1, temozolomide 100 mg/kg p.o. qdx5
[15] = Day 4, temozolomide 100 mg/kg p.o. qdx5
[16] = Day 7, temozolomide 100 mg/kg p.o. qdx5
[17] = Day 11, temozolomide 100 mg/kg p.o. qdx5
[18] = Day 14, temozolomide 100 mg/kg p.o. qdx5
[19] = Day 18, temozolomide 100 mg/kg p.o. qdx5
[20] = Day 21, temozolomide 100 mg/kg p.o. qdx5
[21] = Day 25, temozolomide 100 mg/kg p.o. qdx5
[22] = Day 28, temozolomide 100 mg/kg p.o. qdx5
[23] = temozolomide 100 mg/kg po qd x 5

Cn1nnc2c(C(N)=O)ncn2c1=O [Temozolomide, temozolomide]
MTV (n) Day 22 (mean tumor volume) ([1]; temozolomide 5 mg/kg p.o. qdx5): 825 mm^3
No. of CR ([1]; temozolomide 5 mg/kg p.o. qdx5): 0
No. of NTR ([1]; temozolomide 5 mg/kg p.o. qdx5): 0
No. of PR ([1]; temozolomide 5 mg/kg p.o. qdx5): 0
No. of TR ([1]; temozolomide 5 mg/kg p.o. qdx5): 0
MTV (n) Day 22 (mean tumor volume) ([1]; temozolomide 5 mg/kg p.o. qdx5, listed as temozolomide): 825.1 ± 95.03 N = 115 mm^3
No. of CR [1, 5]: 0
No. of NTR [1, 5]: 0
No. of PR [1, 5]: 1
No. of TR [1, 5]: 0
% TGI ([1]; temozolomide 100 mg/kg p.o. qdx5, Day 22, compared to temozolomide at 5 mg/kg): 88%
Median TTE [2]: 42.0 days
% TGD (vs Group 1) [2, 6]: 152%
Deaths NTR [2, 6]: 0
Deaths TR [2, 6]: 0
Median TTE [2, 6]: 28.7 days
Regressions CR [2, 6]: 0
Regressions PR [2, 6]: 0
Regressions TFS [2, 6]: 0
T − C (TGD vs Group 1) [2, 6]: 17.3 days
% TGD (vs Group 1) [2, 7]: 268%
Deaths NTR [2, 7]: 0
Deaths TR [2, 7]: 0
Median TTE [2, 7]: 42 days
Regressions CR [2, 7]: 1
Regressions PR [2, 7]: 0
Regressions TFS [2, 7]: 1
T − C (TGD vs Group 1) [2, 7]: 30.6 days
MTV (n) Day 46 (median tumor volume) ([2]; Group 6: temozolomide 100 mg/kg po qd x 5, excludes animals attaining tumor volume endpoint): 0 (1) mm3
Deaths NTR (non-treatment-related death) (U87MG tumor fragments; [8]): 0
Deaths TR (treatment-related death) (U87MG tumor fragments; [8]): 0
MTV(n) Day 29 (median tumor volume) (U87MG tumor fragments; [8]): 410 (10) mm^3
Regression CR (complete regression) (U87MG tumor fragments; [9]): 1
Regression PR (partial regression) (U87MG tumor fragments; [9]): 0
Deaths NTR (non-treatment-related death) (U87MG tumor fragments; [10]): 0
Deaths TR (treatment-related death) (U87MG tumor fragments; [10]): 0
Mean BW Nadir (lowest group mean body weight, as % change from Day 1) (U87MG tumor fragments; [10]): −2.5%
MTV(n) Day 29 (median tumor volume) (U87MG tumor fragments; [10]): 10 (8) mm^3
Regression CR (complete regression) (U87MG tumor fragments; [11]): 7
Regression PR (partial regression) (U87MG tumor fragments; [11]): 1
inhibition in vivo at 100 mg/kg (U87MG tumor fragments; Mus musculus, U-87 MG, po, 864 h, read-out: % TGI (percent tumor growth inhibition, compared to Group 1)): 98%
Mean BW Nadir, day of nadir (U87MG tumor fragments; mouse, in vivo, po): Day 8
% TGD (vs Group 1) [3, 12]: 276%
Deaths NTR [3, 12]: 0
Deaths TR [3, 12]: 0
MTV (n) Day 49 [3, 12]: 0 (2) mm^3
Median TTE [3, 12]: 43.6 days
Regressions CR [3, 12]: 2
Regressions PR [3, 12]: 3
Regressions TFS [3, 12]: 2
T − C (TGD vs Group 1) [3, 12]: 32.0 days
% TGD (vs Group 1) [3, 13]: 93%
Deaths NTR [3, 13]: 0
Deaths TR [3, 13]: 0
Median TTE [3, 13]: 22.4 days
Regressions CR [3, 13]: 0
Regressions PR [3, 13]: 0
Regressions TFS [3, 13]: 0
T − C (TGD vs Group 1) [3, 13]: 10.8 days
TV, group Mean ([4]; Day 1, temozolomide 5 mg/kg po qd x 5): 111.2 mm^3
TV, group Mean [4, 14]: 110.7 mm^3
TV, individual mice [4, 14]: 88 mm^3 and 108 mm^3
TV, group Mean ([4]; Day 4, temozolomide 5 mg/kg po qd x 5): 222.2 mm^3
TV, group Mean [4, 15]: 182.8 mm^3
TV, individual mice [4, 15]: 144 mm^3 and 172 mm^3
TV, group Mean ([4]; Day 7, temozolomide 5 mg/kg po qd x 5): 439.1 mm^3
TV, group Mean [4, 16]: 185 mm^3
TV, individual mice [4, 16]: 144 mm^3 and 196 mm^3
TV, group Mean ([4]; Day 11, temozolomide 5 mg/kg po qd x 5): 599.1 mm^3
TV, group Mean [4, 17]: 215.2 mm^3
TV, individual mice [4, 17]: 100 mm^3 and 256 mm^3
TV, group Mean ([4]; Day 14, temozolomide 5 mg/kg po qd x 5): 720.4 mm^3
TV, group Mean [4, 18]: 221.5 mm^3
TV, individual mice [4, 18]: 144 mm^3
TV, group Mean ([4]; Day 18, temozolomide 5 mg/kg po qd x 5): 852.1 mm^3
TV, group Mean [4, 19]: 140.6 mm^3
TV, individual mice [4, 19]: 88 mm^3
TV, group Mean ([4]; Day 21, temozolomide 5 mg/kg po qd x 5): 1058.6 mm^3
TV, group Mean [4, 20]: 99.1 mm^3
TV, individual mice [4, 20]: 75 mm^3
TV, group Mean ([4]; Day 25, temozolomide 5 mg/kg po qd x 5): 1795.6 mm^3
TV, group Mean [4, 21]: 98.4 mm^3
TV, individual mice [4, 21]: 88 mm^3
TV, group Mean ([4]; Day 28, temozolomide 5 mg/kg po qd x 5): 1890.8 mm^3
TV, group Mean [4, 22]: 95 mm^3
TV, individual mice [4, 22]: 144 mm^3
Deaths NTR ([4]; temozolomide 5 mg/kg po qd x 5): 0
Deaths TR ([4]; temozolomide 5 mg/kg po qd x 5): 0
MTV (n) Day 25 (median tumor volume) ([4]; temozolomide 5 mg/kg po qd x 5): 1180 mm^3
Regressions CR ([4]; temozolomide 5 mg/kg po qd x 5): 0
Regressions PR ([4]; temozolomide 5 mg/kg po qd x 5): 0
Deaths NTR [4, 23]: 0
Deaths TR [4, 23]: 0
MTV (n) Day 25 (median tumor volume) [4, 23]: 88 mm^3
Regressions CR [4, 23]: 0
Regressions PR [4, 23]: 0
% TGI ([4]; temozolomide 100 mg/kg po qd x 5, Day 25, compared to temozolomide 5 mg/kg group): 94%
